Among the data in ChEMBL document CHEMBL5725542, “Plasminogen activator inhibitor-1 inhibitors and methods of use thereof” (2017) are IC50 values, retold here.

Broadly, the IC50 is the point on the concentration scale where inhibition reaches its midpoint.

A short description of test [1]: (§1) Fluorometric PAI-1/uPA IC50 Plate Assay (10% plasma buffer): To determine the efficacy of various synthesized compounds as PAI-1 inhibitors, a fluorometric plate assay was carried out to measure the half maximal inhibitory concentration (IC50) of these compounds on recombinant active human PAI-1 in vitro. An IC50 is a measure of the effectiveness of a compound in inhibiting biological or biochemical function. Stated another way, IC50 represents the concentration of a drug that is required for 50% inhibition in vitro. The IC50 of various compounds was measured using a fluorometric plate assay. PAI-1 inhibitor compounds were dissolved in DMSO to a final concentration of (10-50 mM), depending upon solubility. Compounds were then diluted in physiologic buffer (40 mM HEPES, 100 mM NaCl, 0.05% Tween-20, pH7.4) containing 10% DMSO and a dilution series (from 0 to 1000 uM depending on solubility) was prepared. 80 μL of compound was added per well to a 96-well black, opaque microplate in duplicate. 10 μL of 20 nM Recombinant active human PAI-1 (Molecular Innovations) in physiologic buffer (40 mM HEPES, 100 mM NaCl, 0.05% Tween-20, 10% DMSO, pH 7.4), or […] physiologic buffer with 10% human plasma, was added and the mixture was agitated for 15 minutes at room temperature. […].

A short description of test [2]: Fluorometric PAI-1/uPA IC50 Plate Assay: To determine the efficacy of various synthesized compounds as PAI-1 inhibitors, a fluorometric plate assay was carried out to measure the half maximal inhibitory concentration (IC50) of these compounds on recombinant active human PAI-1 in vitro. An IC50 is a measure of the effectiveness of a compound in inhibiting biological or biochemical function. Stated another way, IC50 represents the concentration of a drug that is required for 50% inhibition in vitro. The IC50 of various compounds was measured using a fluorometric plate assay. PAI-1 inhibitor compounds were dissolved in DMSO to a final concentration of (10-50 mM), depending upon solubility. Compounds were then diluted in physiologic buffer (40 mM HEPES, 100 mM NaCl, 0.05% Tween-20, pH7.4) containing 10% DMSO and a dilution series (from 0 to 1000 uM depending on solubility) was prepared. 80 μL of compound was added per well to a 96-well black, opaque microplate in duplicate. 10 μL of 20 nM Recombinant active human PAI-1 (Molecular Innovations) in physiologic buffer (40 mM HEPES, 100 mM NaCl, 0.05% Tween-20, 10% DMSO, pH 7.4), or […] physiologic buffer with 10% human plasma, was added and the mixture was agitated for 15 minutes at room temperature. 10 μL of 25 nM uPA (Rheotromb®) was added to each reaction well and the plate was agitated for an additional 30 minutes at room temperature. Tripeptide aminomethylcoumarin Gly-Gly-Arg-AMC (Calbiochem) fluorogenic substrate (100 μL of 100 μM) was then added and residual uPA activity was determined based upon cleavage of this substrate. The rate of AMC release by uPA (fluorescence) was measured at an excitation wavelength of 370 nm and an emission wavelength of 440 nm. Controls included PAI-1 and uPA in the absence of compound and uPA alone. Percent PAI-1 inhibition was calculated using the following formula: [(uPA alone-uPA/PAI-1+ compound)/(uPA alone-PAI-1/uPA)]*100%. The IC50 was calculated using Graphit (IC50 0-100%).

Test [3] is described as follows: as §1, with “(1.5% BSA” for “(10% plasma”.

For `[C-]#[N+]c1ccc(CNC(=O)C(=O)NN)cc1`, the half-inhibitory concentration (IC50) in test [1] is 0.851 mM; in test [2] it was 5.47 mM; in test [3], 0.892 mM.
On to `COc1cc(CO)ccc1CNC(=O)C(=O)NN`, for which, in test [2], the IC50 is 2.28 mM.
Same read-out and setting: as for `COc1cc(CO)cc(CNC(=O)C(=O)NN)c1`, the figure is 4.31 mM; as for `NNC(=O)C(=O)NCCc1ccc(CO)c(CO)c1`, 2.56 mM.
